Results: article PMC10334471, “Tumor-targeted dual-action NSAID-platinum(IV) anticancer prodrugs” (Inorganic Chemistry Frontiers, 2023)

Key:
CT26 allografts [1] = experiment: Oral anticancer activity in CT26 allografts; type: in vivo, Balb/c mice
Method: It is well known that COX-2 is involved in the paracrine signaling between immune cells, resulting in a pro-tumorigenic tumor microenvironment.[10,33] Consequently, we got interested in the impact of the Asa ligand on the anticancer activity of the drugs in vivo. […] As Asa is clinically applied p.o., we tested the efficacy of OxAsaOAc and asplatin in an oral application setting. […] For the therapy experiment, the animals were treated with OxAsaOAc and asplatin for five subsequent days over two weeks.
(§1) All experiments were executed according to the regulation of the Ethics Committee for the Care and Use of Laboratory Animals at the Medical University Vienna. 8–12 weeks old BALB/c were kept in a pathogen-free environment with a 12 h light dark-cycle with ad libitum access to food and water. Every procedure was performed in a laminar airflow under sterile condition. Tumor growth and possible side effects of drug treatment were evaluated by daily recording the tumor size by caliper measurement according to the formula length × width^2/2 and parameters of the animal's overall health conditions.

CT26 allografts [2] = type: in vivo; conditions: Asa 50 mg kg^−1 p.o.
Method: as §1
(§2) CT26 cells (5 × 10^5 cells in 50 μl serum-free medium) were injected s.c. into the right flank of female BALB/c mice. […] Asa was treated orally using 50 mg kg^−1 in 5% DMSO/0.9% NaCl. Every day, the animals were monitored for the overall health conditions. Additionally, tumor size was measured. In case of a decreased body weight of ∼20% or ulcerated tumors, animals were sacrificed by cervical dislocation and tumors as well as organs were collected.

[3] = Hydrolysis of Asa spiked in fresh murine blood (HPLC-MS); conditions: after 30 min blood clotting and serum extraction
Method: To this end, we spiked Asa in fresh murine blood, isolated the serum, applied the extraction protocol and measured the samples via HPLC-MS.
The extraction method for acetylsalicylic acid and salicylic acid from Grobecker and coworkers was used.[26] For method validation and quantification, 99 μl mouse serum were spiked with Asa or salicylic acid dissolved in 1 μl DMSO in order to obtain a range of concentrations from 1 to 100 μM. Immediately afterwards the samples were acidified with 100 μl HCl/H3PO4 (0.1 M each) and extracted via addition of 600 μl of acetonitrile. After vigorous shaking for 1 min the suspension was stored at 4 °C for ten minutes before being centrifuged at 9500g for 10 min. The supernatant was taken up with a pipette and transferred into an Eppendorf tube with approx. 100 mg of solid NaCl. After vigorous shaking, the samples were again stored at 4 °C for 5 min and centrifuged at 9500 g for 5 min. The organic layer was taken up and measured on an Agilent 1260 Infinity II system using a Waters Acquity UPLC BEH C18 1.7 μm 3.0 × 50 mm column coupled to an Agilent InfinityLab LC/MSD mass spectrometer in negative mode. Milli-Q water, containing 0.1% formic acid, and acetonitrile containing 0.1% formic acid were used as eluents. A gradient of 5–95% acetonitrile in 6 min was used.

HCT116/OxR = experiment: MTT assay, 72 h, HCT116/OxR (oxaliplatin-resistant); type: cell-based; conditions: mean ± SD
Method: (§3) All cell cultures were grown at 37 °C in a humidified atmosphere containing 5% CO2. HCT116, RKO and HT-29 cells were cultured in McCoy's 5A Modified Media (Sigma-Aldrich, St. Louis, MO, USA) supplemented with 10% heat-inactivated fetal calf serum (FCS, PAA, Linz, Austria) and 2 mM glutamine (Sigma-Aldrich, St. Louis, MO, USA). The murine (Balb/c) colon cancer cell model CT26 (purchased from American Type Culture Collection, Manassas, VA, USA) were cultured in DMEM/F12 supplemented with 10% fetal calf serum (FCS). SW480 and Caco-2 cells were cultured in MEME media supplemented with 10% and 20% FCS, respectively. All cell culture media and reagents were purchased from Sigma-Aldrich Austria. […] The cells were regularly checked for Mycoplasma contamination.
(§4) Depending on their proliferation rate, cells were seeded at a density of 3500–5000 cells per well in 96-well microtiter plates and allowed to adhere overnight. […] Cell viability was determined using the 3-(4,5-dimethylthiazol-2-yl)-2,5-diphenyltetrazolium bromide (MTT) assay (EZ4U, Biomedia, Vienna, Austria) according to the manufacturer's recommendation. Depending on the metabolic capacity, the cell lines were incubated between one and three hours at 37 °C and subsequently absorbance was measured at 450 nm (620 nm as a reference) with a Tecan Reader infinite® M200Pro (Tecan Group Ltd, Switzerland). Data were analyzed using Graph Pad prism (version 8.0.1) by using the point-to-point function. […] Following, dose–response curves were calculated using the point-to-point function.

CT26 allografts [4] = experiment: Anticancer activity i.v. in CT26-bearing mice; type: in vivo, Balb/c mice
Method: as §1, §2

[5] = Stability in aqueous buffer pH 7.4 (HPLC); type: physicochemical; conditions: for Stability in aqueous solution: 1 mM, 250 mM phosphate buffer pH 7.4, 20 °C, 25 h, HPLC
Method: (§5) Phosphate buffer (250 mM, pH 7.4) containing 1 mM platinum compound was incubated at 20 °C, with and without the addition of 10 eq. L-ascorbic acid. […] A gradient of 5–95% over 5 minutes was used. To evaluate the current state of the reaction, the peak area of the parental complex was used.

HCT116 = experiment: MTT assay, 72 h, HCT116; type: cell-based; conditions: mean ± SD
Method: as §3, §4

[6] = Preliminary oral tolerability experiments in tumor-free mice; type: in vivo; conditions: p.o., equivalent to 7.5 mg kg^−1 Asa and 12.5 mg kg^−1 cisplatin
Excerpt: It is well known that COX-2 is involved in the paracrine signaling between immune cells, resulting in a pro-tumorigenic tumor microenvironment.[10,33] Consequently, we got interested in the impact of the Asa ligand on the anticancer activity of the drugs in vivo. Therefore, we chose immune-competent murine colon cancer CT26 allografts as test system, which were characterized by high COX-2 expression (Fig. S4 ^†). […] Thus, the experiment was stopped on day 19 due to a distinct drop in body weight in these animals. As Asa is clinically applied p.o., we tested the efficacy of OxAsaOAc and asplatin in an oral application setting. […] For the therapy experiment, the animals were treated with OxAsaOAc and asplatin for five subsequent days over two weeks. […] Consequently, we concluded that the drug doses reaching the tumor in these therapy settings were insufficient, which prompted us to aim for carrier systems with enhanced tumor-targeting properties.

Caco-2 = experiment: MTT assay, 72 h, Caco-2; type: cell-based; conditions: Caco-2, MTT, 72 h treatment, mean ± SD
Method: as §3, §4

[7] = Serum levels and organ distribution of platinum in CT26-bearing mice (ICP-MS); type: in vivo, Balb/c mice; conditions: 24 h after single i.v. dose equimolar to 9 mg kg^−1 oxaliplatin
Method: CT26 cells (5 × 10^5 cells in 50 μl serum-free medium) were injected subcutaneously (s.c.) into the right flank of female BALB/c mice. […] After 24 h, the animals were anesthetized and blood was drawn. The animals were sacrificed by cervical dislocation and tumors as well as organs were collected for measurement with ICP-MS. To isolate serum and blood pellets, blood was centrifuged for 10 min at 3000 rpm. The supernatant characterized as serum was transferred to a new tube and centrifuged again to get rid of residual red blood cells.

[8] = Reduction kinetics with 10 eq. ascorbic acid (UHPLC); type: physicochemical
Method: as §5

CT26 (murine) = experiment: MTT assay, 72 h, CT26; type: cell-based; conditions: 72 h treatment, mean ± SD
Method: as §3, §4

HT-29 = experiment: MTT assay, 72 h, HT-29; type: cell-based; conditions: HT-29, MTT, 72 h treatment, mean ± SD
Method: as §3, §4

[9] = Released salicylic acid in serum of mice after single i.v. administration (UHPLC-MS)
Method: After 10 min, 1 h and 24 h blood was collected via the facial vein. Serum was isolated by centrifugation at 900 g for 10 min for two times and stored at −80 °C. Platinum content was detected by ICP-MS measurements, using an Agilent 7800 (Agilent Technologies, Tokyo, Japan) equipped with an Agilent SPS 4 autosampler (Agilent Technologies, Tokyo, Japan) and a MicroMist nebulizer. The Agilent MassHunter software package (Workstation Software, Version C.01.04, 2018) was used for data evaluation. The ICP-MS operation parameters are given in Table S1. ^† Salicylic acid was extracted and detected as described above.

SW480 = experiment: MTT assay, 72 h, SW480; type: cell-based; conditions: 72 h treatment, mean ± SD
Method: as §3, §4

RKO = experiment: MTT assay, 72 h, RKO; type: cell-based; conditions: 72 h treatment, mean ± SD
Method: as §3, §4

albumin = molecular target: T1, albumin (Bos taurus, UniProt P02769); experiment: Albumin binding in fetal calf serum by SEC-ICP-MS; type: in vitro ADME; conditions: 100 μM in FCS (150 mM phosphate buffer, pH 7.4), 37 °C
T1 construct: Fetal calf serum was purchased from Sigma-Aldrich and buffered with 150 mM phosphate pH 7.4; tissue Sigma-Aldrich; host or cells: fetal calf serum
Method: Fetal calf serum was purchased from Sigma-Aldrich and buffered with 150 mM phosphate pH 7.4 in order to guarantee a stable pH. The platinum(IV) complexes (5 mM) were dissolved in 150 mM phosphate buffer (pH 7.4) and diluted 1 : 50 in the buffered serum to obtain a final concentration of 100 μM. The samples were then incubated in the autosampler at 37 °C and analyzed every 1 h for 6 h. Between each sample a pure water blank was measured. For SEC-ICP-MS measurements an Agilent 1260 Infinity system coupled to an Agilent 7800 ICP-MS equipped with a dynamic reaction cell was used. Oxygen (purity 5.5, Messer Austria GmbH, Gumpoldskirchen, Austria) was used as reaction gas.

[10] = Homo sapiens, HCT-116, 72 h treatment
[11] = compared to all four non-albumin-binding drugs

T1 sequence (P02769 25-607): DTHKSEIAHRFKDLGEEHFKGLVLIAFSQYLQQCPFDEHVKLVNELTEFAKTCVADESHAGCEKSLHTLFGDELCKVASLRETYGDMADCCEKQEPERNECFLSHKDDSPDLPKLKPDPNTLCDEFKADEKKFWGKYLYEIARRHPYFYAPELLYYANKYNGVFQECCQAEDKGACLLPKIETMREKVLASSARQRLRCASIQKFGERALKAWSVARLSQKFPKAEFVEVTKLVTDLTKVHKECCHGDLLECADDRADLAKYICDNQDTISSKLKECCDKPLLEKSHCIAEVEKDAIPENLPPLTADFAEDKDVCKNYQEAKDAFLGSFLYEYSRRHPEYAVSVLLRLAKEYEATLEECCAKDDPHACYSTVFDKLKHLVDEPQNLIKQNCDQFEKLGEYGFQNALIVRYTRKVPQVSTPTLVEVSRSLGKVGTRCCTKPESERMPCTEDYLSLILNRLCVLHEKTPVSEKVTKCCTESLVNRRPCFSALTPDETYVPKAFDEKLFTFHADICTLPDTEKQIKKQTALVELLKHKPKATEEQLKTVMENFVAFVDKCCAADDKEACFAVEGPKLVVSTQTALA

CC(=O)Oc1ccccc1C(=O)O [Asa, acetylsalicylic acid]
Impact on tumor growth (CT26 allografts [1]; Asa 15 mg kg^−1 p.o.): no impact on tumor growth | Response of tumor model (tumor growth) (CT26 allografts [2]): responsiveness | Hydrolysis of Asa to salicylic acid [3]: more than half of Asa was hydrolyzed to salicylic acid

CC(=O)Oc1ccccc1C(=O)[O][Pt]([OH])([Cl])[Cl].N.N [Asplatin]
IC50 (HCT116/OxR; 72 h treatment): 8.7 ± 1.8 µM | Impact on tumor growth (CT26 allografts [1]; asplatin 20.7 mg kg^−1 p.o., five subsequent days over two weeks): none of the drugs had any impact on tumor growth | Toxicity i.v. (CT26 allografts [4]; reason for lower i.v. dose equimolar to 3 mg kg^−1 cisplatin): high toxicity | Stability in aqueous solution [5]: high stability | IC50 (HCT116; 72 h treatment): 2.2 ± 0.1 µM | Oral dose that could be used (tolerability) [6]: 20.7 mg/kg | IC50 (Caco-2): 6.4 ± 1.1 µM | Platinum levels in liver and kidney [7]: exceptionally high | Remaining intact platinum(IV) complex at 1 h ([8]; 1 mM, 250 mM phosphate buffer pH 7.4, 20 °C, 10 eq. ascorbic acid, 1 h): no remaining intact platinum(IV) complex could be observed | IC50 (CT26 (murine)): 2.5 ± 0.2 µM | IC50 (HT-29): 9.2 ± 0.6 µM | Free salicylic acid in serum, share of administered dose ([9]; 10 min after single i.v. dose equimolar to 9 mg kg^−1 oxaliplatin, tumor-free Balb/c mice): ~30 mol% | Salicylic acid level in serum ([9]; 24 h after single i.v. dose equimolar to 9 mg kg^−1 oxaliplatin, below LOD): < 3 µM | IC50 (SW480): 0.6 ± 0.1 µM | IC50 (RKO): 0.9 µM

Cc1ccc(-c2cc(C(F)(F)F)nn2-c2ccc(S(N)(=O)=O)cc2)cc1 [Celecoxib]
IC50 (HCT116/OxR; [10]): 79.2 ± 2.7 µM | IC50 (HCT116; [10]): 76.2 ± 4.3 µM | IC50 (Caco-2; Homo sapiens): 79.2 ± 3.6 µM | IC50 (CT26 (murine); Mus musculus): 60.9 ± 2.5 µM | IC50 (HT-29; Homo sapiens): 68 ± 6.4 µM | IC50 (SW480; Homo sapiens): 83.1 ± 1.5 µM | IC50 (RKO; Homo sapiens): 79.3 ± 4.9 µM

N.N.[Cl][Pt][Cl] [Cisplatin, cisplatin]
IC50 (HCT116/OxR; 72 h treatment): 10.4 ± 1.8 µM | IC50 (HCT116; 72 h treatment): 3.1 ± 0.5 µM | IC50 (CT26 (murine)): 1.2 ± 0.2 µM | IC50 (HT-29): 10.1 ± 0.3 µM | IC50 (SW480): 7.8 ± 1.3 µM | IC50 (RKO): 1.6 ± 0.3 µM

CC(=O)[O][Pt-2]12([O]C(C)=O)([NH2+][C@@H]3CCCC[C@H]3[NH2+]1)[O]C(=O)C(=O)[O]2 [Ox(OAc)2]
IC50 (HCT116/OxR; 72 h treatment): > 100 µM | Stability in aqueous solution [5]: high stability | IC50 (HCT116; 72 h treatment): 17.4 ± 2.4 µM | Intact complex after 6 h ([8]; 1 mM, 250 mM phosphate buffer pH 7.4, 20 °C, 10 eq. ascorbic acid, 6 h): 97% | Intact complex after 24 h ([8]; 1 mM, 250 mM phosphate buffer pH 7.4, 20 °C, 10 eq. ascorbic acid, 24 h): 81% | IC50 (CT26 (murine)): 22.5 ± 2.8 µM | IC50 (HT-29): 136 ± 34.6 µM | IC50 (SW480): 13.2 ± 2.5 µM | IC50 (RKO): 9 ± 1 µM

CC(=O)Oc1ccccc1C(=O)[O][Pt-2]12([O]C(=O)NCCOCCOCCOCCOCCN3C(=O)C=CC3=O)([NH2+][C@@H]3CCCC[C@H]3[NH2+]1)[O]C(=O)C(=O)[O]2 [OxAsaMal, (OC-6-34)-(2-acetoxybenzoato)[(1R,2R)-1,2-cyclohexanediamino]oxalato[(14-(2,5-dioxo-2,5-dihydro-1H-pyrrol-1-yl)-3,6,9,12-tetraoxatetradecyl)carbamato]platinum(IV)]
Prolonged overall survival (CT26 allografts [4]; i.v., 4-times over 2 weeks, dose equimolar to 9 mg kg^−1 oxaliplatin, CT26): ~20 days | Tolerability (body weight) (CT26 allografts [4]; i.v., 4-times over 2 weeks, doses equimolar to 9 mg kg^−1 oxaliplatin): well tolerated | Anticancer activity (tumor growth, overall survival) (CT26 allografts [4]; i.v., 4-times over 2 weeks, doses equimolar to 9 mg kg^−1 oxaliplatin, CT26): long-lasting disease control over several days | Stability of the platinum core ([5]; phosphate-buffered saline (PBS) pH 7.4, 24 h): high stability of the platinum core | Platinum plasma levels [7, 11]: significantly higher plasma levels | Tumor accumulation of platinum [7, 11]: higher tumor accumulation | Reduction behavior (monitored by released Asa and oxaliplatin) ([8]; in the presence of ascorbic acid, comparable to OxAsaOAc): slow reduction behavior | Fraction bound to the albumin fraction (albumin; 0 h time point): 77% | Fraction bound to the albumin fraction (albumin; after 1 h): 95%
